In one assay the target is EGFR (mouse) (UniProt P00533). As to conditions: 3t3.
For another assay, the target named is CDK2 (UniProt P24941).
Assay [1] has as its target EGFR (UniProt P00533).
The target in assay [2] is EGFR (UniProt P00533). The source holds these as a separate data set.
Assay [3] addresses EGFR (UniProt P00533). The source holds these as a separate data set.
Another assay concerns the target EGFR (human) (UniProt P00533). As to conditions: A431.

EGFR, sequence (P00533 whole entry, looked up): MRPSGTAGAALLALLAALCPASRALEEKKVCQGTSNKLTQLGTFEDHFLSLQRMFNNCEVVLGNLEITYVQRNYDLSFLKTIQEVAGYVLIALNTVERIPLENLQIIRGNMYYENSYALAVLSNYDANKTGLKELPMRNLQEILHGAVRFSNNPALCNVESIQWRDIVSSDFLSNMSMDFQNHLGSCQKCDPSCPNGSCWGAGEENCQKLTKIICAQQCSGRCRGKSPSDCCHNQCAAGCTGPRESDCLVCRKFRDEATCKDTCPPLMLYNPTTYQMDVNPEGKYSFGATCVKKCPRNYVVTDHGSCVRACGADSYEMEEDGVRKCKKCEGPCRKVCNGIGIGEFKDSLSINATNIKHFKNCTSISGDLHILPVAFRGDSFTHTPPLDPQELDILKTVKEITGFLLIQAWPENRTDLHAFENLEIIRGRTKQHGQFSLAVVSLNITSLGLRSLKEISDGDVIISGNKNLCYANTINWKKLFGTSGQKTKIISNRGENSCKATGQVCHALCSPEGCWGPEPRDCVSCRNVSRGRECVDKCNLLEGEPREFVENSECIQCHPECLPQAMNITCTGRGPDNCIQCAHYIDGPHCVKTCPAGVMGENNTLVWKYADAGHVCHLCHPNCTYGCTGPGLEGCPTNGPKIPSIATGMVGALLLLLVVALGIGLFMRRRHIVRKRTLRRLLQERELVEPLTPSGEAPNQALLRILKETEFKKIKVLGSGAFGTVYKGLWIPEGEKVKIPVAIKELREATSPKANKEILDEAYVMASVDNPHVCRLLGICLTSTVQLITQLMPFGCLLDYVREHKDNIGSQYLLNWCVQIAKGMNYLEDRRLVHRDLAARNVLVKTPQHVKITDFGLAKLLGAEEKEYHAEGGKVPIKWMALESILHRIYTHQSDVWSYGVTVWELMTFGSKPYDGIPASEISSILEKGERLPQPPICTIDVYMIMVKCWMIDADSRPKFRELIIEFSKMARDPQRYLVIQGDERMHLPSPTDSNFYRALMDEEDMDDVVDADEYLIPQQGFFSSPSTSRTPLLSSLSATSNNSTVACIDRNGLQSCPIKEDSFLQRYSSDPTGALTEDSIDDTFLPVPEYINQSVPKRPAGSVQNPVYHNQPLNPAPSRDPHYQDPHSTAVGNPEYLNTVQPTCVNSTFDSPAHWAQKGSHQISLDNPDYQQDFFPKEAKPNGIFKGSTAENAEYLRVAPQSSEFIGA
EGFR (human), sequence (P00533 whole entry, looked up): as above

`O=C1Nc2ccccc2/C1=C/c1ccc(-n2cccc2)cc1` returned an IC50 with EGFR (mouse) of 17 µM.
`CC(C)=CCNc1ncnc2[nH]cnc12` displayed an IC50 against CDK2 of 50 µM.
Take `COc1cccc(-c2cn(-c3ccc(CCN(C)CCO)cc3)c3ncncc23)c1`: the IC50 on EGFR [1] was determined as 0.3 µM; against EGFR [2] it was 10 µM.
On to `N#CC(=Cc1cccnc1)c1cc(Cl)cc(Cl)c1`, for which, at EGFR [3], the IC50 was 0.1 µM.
As to `N#C/C(=C\c1ccc2c(c1)OCO2)c1ccccn1`, the IC50 on EGFR (human) was 1 µM.

Broadly, the IC50 is the concentration at which inhibition is half-maximal. Read a high IC50 as lower potency.
